The text below walks through data of PubChem BioAssay AID328 (DTP/NCI, 2004).

Where “and” joins values, the source holds several entries; their conditions need not be identical. Equal values may be shown once. Toxic doses and inconclusive results are not listed.

This experiment concerns BDF1 mice, P388 leukemia ip, median survival T/C. The experiment can be described thus: NCI In Vivo Anticancer Drug Screen. Data for tumor model P388 Leukemia (intraperitoneal) in B6D2F1 (BDF1) mice. The following applies: endpoint: median survival time, higher = longer survival. The method, boiled down:
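In tumour-bearing mice, survival after compound treatment is set against the vehicle group and given as a quotient.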

Setting [1] is: dose: 100.0 mg/kg/injection, schedule: Q04DX003 (ip), vehicle: saline with Tween-80.
The mark [2] stands for this setting: dose: 200.0 mg/kg/injection, schedule: Q04DX003 (ip), vehicle: saline with Tween-80.
The mark [3] stands for this setting: dose: 400.0 mg/kg/injection, schedule: Q04DX003 (ip), vehicle: saline with Tween-80.
Where [4] appears, read: dose: 50.0 mg/kg/injection, schedule: Q01DX009 (ip), vehicle: saline with Tween-80.
[5] abbreviates: dose: 100.0 mg/kg/injection, schedule: Q01DX009 (ip), vehicle: saline with Tween-80.
Where [6] appears, read: dose: 200.0 mg/kg/injection, schedule: Q01DX009 (ip), vehicle: saline with Tween-80.
Where [7] appears, read: dose: 25.0 mg/kg/injection, schedule: Q01DX009 (ip), vehicle: saline with Tween-80.

Take `Cc1ccc(S(=O)(=O)CC([Se]C#N)c2ccccc2)cc1` (stereo not drawn): the T/C by setting is: under setting [1], 105 % of control; under setting [2], 92 % of control; under setting [3], 89 % of control.

On to `O=C1CC(Nc2ccccc2)=C([N+](=O)[O-])C(=O)N1`, for which the T/C was 109 % of control under setting [4], 102 % of control under setting [5] and 109 % of control under setting [6].

Take `CCCNC(=O)Oc1ccc(C(=O)OCC)cc1`: the T/C reads like this: under setting [1], 100 % of control; under setting [2], 109 % of control; under setting [3], 113 % of control.

Regarding `CC1CCc2c(ccc3ccccc23)C1=O` (stereo not drawn), the T/C by setting is: (dose: 100.0 mg/kg/injection, schedule: Q01DX009 (ip), vehicle: gum acacia) 92 % of control; (dose: 100.0 mg/kg/injection, schedule: Q04DX003 (ip), vehicle: gum acacia) 107 % of control; (dose: 200.0 mg/kg/injection, schedule: Q01DX009 (ip), vehicle: gum acacia) 100 % of control; (dose: 200.0 mg/kg/injection, schedule: Q04DX003 (ip), vehicle: gum acacia) 103 % of control; (dose: 400.0 mg/kg/injection, schedule: Q01DX009 (ip), vehicle: gum acacia) 100 % of control; (dose: 400.0 mg/kg/injection, schedule: Q04DX003 (ip), vehicle: gum acacia) 89 % of control.

For `Nc1nc(N)c(N=O)c(Nc2ccc(Cl)c(Cl)c2)n1`, the T/C runs as follows: under setting [4], 109 % of control; under setting [5], 109 % of control; under setting [6], 95 % of control.

Consider `O=[N+]([O-])CC(O)C(O)C(O)C(O)CO` (stereo not drawn), for which the T/C was 95 % of control (dose: 100.0 mg/kg/injection, schedule: Q01DX009 (ip), vehicle: saline); 104 % of control (dose: 100.0 mg/kg/injection, schedule: Q04DX003 (ip), vehicle: saline); 100 % of control (dose: 200.0 mg/kg/injection, schedule: Q01DX009 (ip), vehicle: saline); 100 % of control (dose: 200.0 mg/kg/injection, schedule: Q04DX003 (ip), vehicle: saline); 100 % of control (dose: 400.0 mg/kg/injection, schedule: Q01DX009 (ip), vehicle: saline); 104 % of control (dose: 400.0 mg/kg/injection, schedule: Q04DX003 (ip), vehicle: saline).

With `CNc1ccc(OC)cc1`, the T/C by setting is: (dose: 100.0 mg/kg/injection, schedule: Q01DX009 (ip), vehicle: other) 100 % of control; (dose: 200.0 mg/kg/injection, schedule: Q01DX009 (ip), vehicle: other) 104 % of control; (dose: 400.0 mg/kg/injection, schedule: Q01DX009 (ip), vehicle: other) 104 % of control.

With `CN(C)c1ccc(C(=C2C=CC(=[N+](C)C)C=C2)c2ccccc2Cl)cc1`, the T/C (dose: 5.0 mg/kg/injection, schedule: Q01DX010 (ip), vehicle: saline) is 110 % of control.

For `COc1ccc(NC(=S)NN)cc1`, the T/C is 100 % of control (dose: 25.0 mg/kg/injection, schedule: Q04DX003 (ip), vehicle: saline with Tween-80); 100 % of control (dose: 50.0 mg/kg/injection, schedule: Q04DX003 (ip), vehicle: saline with Tween-80); 100 % of control (dose: 66.0 mg/kg/injection, schedule: Q04DX003 (ip), vehicle: saline with Tween-80); 100 % of control under setting [1]; 90 % of control (dose: 150.0 mg/kg/injection, schedule: Q04DX003 (ip), vehicle: saline with Tween-80).

For `O=C(Nc1cccc(Cl)c1)Nc1ccccc1Cl`, the T/C was 97 % of control under setting [1], 108 % of control under setting [2] and 91 % of control under setting [3].

Consider `NNC(=S)SCc1ccccc1`, for which the T/C was 106 % of control (dose: 15.0 mg/kg/injection, schedule: Q01DX009 (ip), vehicle: saline with Tween-80) and 98 % of control (dose: 30.0 mg/kg/injection, schedule: Q01DX009 (ip), vehicle: saline with Tween-80).

Turning to `CCCCCCCCC(=O)c1c(OC)oc(/C=N/O)cc1=O`, the T/C is 94 % of control (dose: 1.56 mg/kg/injection, schedule: Q01DX009 (ip), vehicle: Klucel (hydroxypropylcellulose) (HPC)); 107 % of control (dose: 3.13 mg/kg/injection, schedule: Q01DX009 (ip), vehicle: Klucel (hydroxypropylcellulose) (HPC)); 97 % of control (dose: 6.25 mg/kg/injection, schedule: Q01DX009 (ip), vehicle: Klucel (hydroxypropylcellulose) (HPC)).

Regarding `CCCCCCCCCCCCCCCCC(C(=O)O)C(O)(CC(=O)O)C(=O)O` (stereo not drawn), the T/C is, setting by setting: (dose: 25.0 mg/kg/injection, schedule: Q01DX010 (ip), vehicle: saline) 104 % of control; (dose: 50.0 mg/kg/injection, schedule: Q01DX010 (ip), vehicle: saline) 100 % of control.

As for `O=C1CCCC(=O)N1CCCCCCN1C(=O)CCCC1=O`, the T/C was 104 % of control under setting [4] and 112 % of control under setting [5].

As to `c1ccc(N=NC2=NN(c3ccccc3)CCS2)cc1`, the T/C reads like this: under setting [7], 116 % of control; under setting [4], 105 % of control; under setting [5], 122 % of control.

Take `CCOC(=O)Nc1cc2c(c(N)n1)N=C(CN(C)c1ccc(OC)cc1)CN2`: the T/C is 175 % of control (dose: 12.5 mg/kg/injection, schedule: Q01DX001 (ip), vehicle: Klucel (hydroxypropylcellulose) (HPC)); 240 % of control (dose: 25.0 mg/kg/injection, schedule: Q01DX001 (ip), vehicle: Klucel (hydroxypropylcellulose) (HPC)); 277 % of control (dose: 50.0 mg/kg/injection, schedule: Q01DX001 (ip), vehicle: Klucel (hydroxypropylcellulose) (HPC)).

Consider `CC(=O)OC1CC2CC1C1C3C=CC(C3)C21` (stereo not drawn), for which the T/C under setting [5] is 109 % of control.

With `CCC[CH2][Sn]1([CH2]CCC)[O]OC(c2ccccc2)[O]1` (stereo not drawn), the T/C runs as follows: (dose: 0.5 mg/kg/injection, schedule: Q01DX009 (ip), vehicle: saline with Tween-80) 109 % of control; (dose: 1.0 mg/kg/injection, schedule: Q01DX009 (ip), vehicle: saline with Tween-80) 123 % of control; (dose: 1.25 mg/kg/injection, schedule: Q04DX003 (ip), vehicle: other) 109 % of control; (dose: 1.32 mg/kg/injection, schedule: Q01DX009 (ip), vehicle: saline with Tween-80) 115 % of control and 116 % of control; (dose: 2.0 mg/kg/injection, schedule: Q01DX009 (ip), vehicle: saline with Tween-80) 110 % of control and 120 % of control; (dose: 2.5 mg/kg/injection, schedule: Q04DX003 (ip), vehicle: other) 105 % of control and 113 % of control. Also, the T/C by setting is: (dose: 5.0 mg/kg/injection, schedule: Q04DX003 (ip), vehicle: other) 118 % of control; (dose: 12.0 mg/kg/injection, schedule: Q01DX009 (ip), vehicle: saline with Tween-80) 150 % of control.

With `CSC(=S)N/N=C(\C)C1CCCC[N-]1.[Cl][Zn][Cl]` (stereo not drawn), the T/C runs as follows: (dose: 12.5 mg/kg/injection, schedule: Q01DX009 (ip), vehicle: saline with Tween-80) 105 % of control; under setting [7], 119 % of control; under setting [4], 118 % of control.

`Cc1cccc(C)c1N=CNc1c(C)cccc1C.[Cu+2]`: the T/C runs as follows: under setting [7], 103 % of control; under setting [4], 86 % of control.

`CCCCn1c(Cl)c(/C=N\Nc2ccccc2[N+](=O)[O-])c2ccccc21`: under “dose: 200.0 mg/kg/injection, schedule: Q01DX001 (ip), vehicle: Klucel (hydroxypropylcellulose) (HPC)”, the T/C was 89 % of control.

In the case of `COc1c(C)cc(Br)c2c1C(CCN(C)S(=O)(=O)Cc1ccccc1)CCC2` (stereo not drawn), the T/C is 100 % of control (dose: 100.0 mg/kg/injection, schedule: Q01DX009 (ip), vehicle: Klucel (hydroxypropylcellulose) (HPC)); 110 % of control (dose: 200.0 mg/kg/injection, schedule: Q01DX009 (ip), vehicle: Klucel (hydroxypropylcellulose) (HPC)); 110 % of control (dose: 400.0 mg/kg/injection, schedule: Q01DX009 (ip), vehicle: Klucel (hydroxypropylcellulose) (HPC)).

Consider `CC12CCC3C(CCC4=CC(O)CCC43C=O)C1(O)CCC2c1ccc(=O)oc1` (stereo not drawn), for which the T/C is 100 % of control (dose: 0.11 mg/kg/injection, schedule: Q01DX009 (ip), vehicle: saline + alcohol); 95 % of control (dose: 0.33 mg/kg/injection, schedule: Q01DX009 (ip), vehicle: saline + alcohol); 95 % of control (dose: 1.0 mg/kg/injection, schedule: Q01DX009 (ip), vehicle: saline + alcohol); 95 % of control (dose: 3.0 mg/kg/injection, schedule: Q01DX010 (ip), vehicle: carboxymethylcellulose (CMC)).

On to `CNc1n[n+](-c2ccccc2)no1`, for which the T/C by setting is: (dose: 3.12 mg/kg/injection, schedule: Q01DX009 (ip), vehicle: saline) 115 % of control; (dose: 6.25 mg/kg/injection, schedule: Q01DX009 (ip), vehicle: saline) 101 % of control and 120 % of control; (dose: 6.25 mg/kg/injection, schedule: Q04DX003 (ip), vehicle: saline) 102 % of control; (dose: 12.5 mg/kg/injection, schedule: Q04DX003 (ip), vehicle: saline) 96 % of control; (dose: 25.0 mg/kg/injection, schedule: Q04DX003 (ip), vehicle: saline) 104 % of control and 107 % of control.
